Patent publication US20250049811A1, “METHODS OF TREATING PANCREATIC CANCER BY USING BET INHIBITOR AND PARP INHIBITOR” (NATIONAL CHENG KUNG UNIVERSITY, priority 2023, published 2025)
pIC50: −log10 of the molar value.

How the values were obtained:
[1] = test system: Panc-1 cells; test: MTT cytotoxicity / cell viability assay, Panc-1; format: cell-based; conditions: Homo sapiens, 72 hours post-treatment, read-out: IC50 values in specified pancreatic cancer cell line
Experimental: (§1) Four human PDAC cell lines were used in this study, including MIA-PaCa2, Panc-1, AsPC1, and BxPC3, in which the MIA-PaCa2, Panc-1 and AsPC1 comprises a KRAS mutation (i.e., KRAS mutant cell lines), and the BxPC3 has a wild-type KRAS gene (see, for example, Wen-Hsuan Chang et al., Cancer Lett. (2021), 517: 66-77; and Radu Pirlog et al., J Clin Invest. (2022), 132(14): e161454). The MIA-PaCa2 cells were cultured in RPMI1640 medium containing 10% fetal bovine serum (FBS) and 1% penicillin/streptomycin. The AsPC1, BxPC3 and Panc-1 cells were cultured in DMEM high glucose medium supplemented with 10% FBS and 1% penicillin/streptomycin.
(§2) Cytotoxicity and cell proliferation were determined by using 3-(4,5-dimethylthiazol-2-yl)-2,5-diphenyltetrazolium bromide (MTT) assay. Specifically, the MIA-PaCa2 and Panc-1 were seeded in a 96-well plate (5×10^3 cells/well). […] The resulting formazan crystals were dissolved using dimethyl sulfoxide (DMSO), and the absorbance was measured at 495 nm using a microplate reader. The cell proliferation ability was quantified as the optical density (OD) value. The cytotoxicity induced by the treatments was determined by calculating the percentage of viable cells (dividing the optical density of the drug-treated samples by that of the control samples). […]

[2] = test system: BxPC3 cells; test: MTT cytotoxicity / cell viability assay, BxPC3; format: cell-based; conditions: Homo sapiens, BXPC-3, 72 hours post-treatment, read-out: IC50 values in specified pancreatic cancer cell line
Experimental: as §1, §2

[3] = test system: MIA-PaCa2 subcutaneous tumor; test: Subcutaneous tumor model; format: in vivo, NOD-SCID male mice; conditions: oral, five times per week for three weeks; mivebresib 1 mg/Kg, rucaparib 10 mg/Kg; FIG. 2
Experimental: The MIA-PaCa2 cells (2×10^6) were suspended in 10 μL phosphate buffered saline (PBS), and then subcutaneously injected to NOD-SCID male mice (6-8 weeks old). After 14 days (the tumor size was about 100-150 mm^3), PBS, mivebresib (1 mg/Kg), rucaparib (10 mg/Kg), or the combination of mivebresib and rucaparib (1 mg/Kg of mivebresib plus 10 mg/Kg of rucaparib) was orally administered to the mice five times per week, for three consecutive weeks. The tumor size was measured using caliper every 2-3 days, until the mice met humane endpoint criteria and were euthanized.
Two tumor models, including subcutaneous and orthotropic tumor models, were used in the example to evaluate the anti-tumor effect of mivebresib and rucaparib on pancreatic cancer. As described in “Materials and Methods”, the tumor-bearing mice were respectively administered with PBS, mivebresib, rucaparib, and the combination of mivebresib and rucaparib. The tumor sizes were monitored by caliper and IVIS® imaging system. The results were respectively depicted in FIG. 2 (subcutaneous tumor model) and FIG. 3 (orthotropic tumor model).

[4] = test system: AsPC1 cells; test: MTT cytotoxicity / cell viability assay, AsPC1; format: cell-based; conditions: Homo sapiens, 72 hours post-treatment, read-out: IC50 values in specified pancreatic cancer cell line
Experimental: as §1, §2

[5] = test system: MIA-PaCa2 cells; test: MTT cytotoxicity / cell viability assay, MIA-PaCa2; format: cell-based; conditions: Homo sapiens, MIA PaCa-2, 72 hours post-treatment, read-out: IC50 values in specified pancreatic cancer cell line
Experimental: as §1, §2

[6] = test system: pancreatic cancer; test: Overall survival of pancreatic cancer patients with neoadjuvant chemotherapy; format: in vivo, human; conditions: patients with cisplatin treatment (without: 18.96 months); data not shown
Experimental: Whether neoadjuvant chemotherapy (a chemotherapy that a cancer patient receives before the primary course of surgical treatment) would affect the overall survival of cancer patients was determined in the example. According to the results, the overall survivals of patient with or without cisplatin treatment were respectively 26.36 and 18.96 months (data not shown). Then, the patients receiving the platinum-based therapy were further divided into responder group and non-responder group.

SMILES	pIC50 [1]	pIC50 [2]	tumor growth (tumor size by caliper) [3]	pIC50 [4]	pIC50 [5]	overall survival [6] [months]
CCS(=O)(=O)Nc1ccc(Oc2ccc(F)cc2F)c(-c2cn(C)c(=O)c3[nH]ccc23)c1 [Mivebresib, mivebresib]	5.85	6.56	inhibited tumor growth	6.72	6.59	
CNCc1ccc(-c2[nH]c3cc(F)cc4c3c2CCNC4=O)cc1 [Rucaparib, rucaparib]	5.70	5.60	inhibited tumor growth	5.63	5.61	
N.N.[Cl][Pt][Cl] [cisplatin]						26.36
